Measurements from ChEMBL document CHEMBL2384969, “Discovery and Optimization of Potent GPR40 Full Agonists Containing Tricyclic Spirocycles” (ACS Med Chem Lett, 2013).
Activity calls are given as the source filed them. No cut-off for these calls is given here.

Assays:
[1] = target: T1, Adenosine receptor A1 (Homo sapiens) (UniProt P30542); test: Inhibition of human adenosine A1 receptor at 10 uM relative to control
T1 sequence (whole entry): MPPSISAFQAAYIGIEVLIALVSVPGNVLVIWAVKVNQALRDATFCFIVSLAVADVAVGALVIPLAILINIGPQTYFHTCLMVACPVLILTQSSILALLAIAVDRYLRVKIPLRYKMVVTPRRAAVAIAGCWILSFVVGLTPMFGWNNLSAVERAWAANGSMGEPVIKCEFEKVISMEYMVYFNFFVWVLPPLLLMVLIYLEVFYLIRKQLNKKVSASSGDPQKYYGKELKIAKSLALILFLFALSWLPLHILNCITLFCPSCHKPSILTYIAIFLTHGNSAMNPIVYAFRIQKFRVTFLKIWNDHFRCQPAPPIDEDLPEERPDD

[2] = Oral bioavailability in Sprague-Dawley rat at 2 mg/kg; format: ADME, organism-based; settings: in vivo
[3] = target: T2, Thyrotropin-releasing hormone receptor (Homo sapiens) (UniProt P34981); test: Inhibition of human TRH1 receptor at 10 uM relative to control
T2 sequence (whole entry): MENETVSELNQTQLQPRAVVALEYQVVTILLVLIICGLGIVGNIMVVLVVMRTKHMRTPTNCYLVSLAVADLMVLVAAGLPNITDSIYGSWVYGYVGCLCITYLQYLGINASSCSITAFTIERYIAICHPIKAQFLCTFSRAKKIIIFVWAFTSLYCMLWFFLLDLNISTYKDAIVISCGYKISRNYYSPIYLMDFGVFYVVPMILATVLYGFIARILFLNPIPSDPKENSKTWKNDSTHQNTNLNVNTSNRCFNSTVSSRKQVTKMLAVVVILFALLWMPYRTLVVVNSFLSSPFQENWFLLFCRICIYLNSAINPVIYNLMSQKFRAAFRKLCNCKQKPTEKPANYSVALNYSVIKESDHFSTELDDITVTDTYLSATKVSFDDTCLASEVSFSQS

[4] = target: T3, Gastrin/cholecystokinin type B receptor (Homo sapiens) (UniProt P32239); test: Inhibition of human CCK2 receptor at 10 uM relative to control
T3 sequence (whole entry): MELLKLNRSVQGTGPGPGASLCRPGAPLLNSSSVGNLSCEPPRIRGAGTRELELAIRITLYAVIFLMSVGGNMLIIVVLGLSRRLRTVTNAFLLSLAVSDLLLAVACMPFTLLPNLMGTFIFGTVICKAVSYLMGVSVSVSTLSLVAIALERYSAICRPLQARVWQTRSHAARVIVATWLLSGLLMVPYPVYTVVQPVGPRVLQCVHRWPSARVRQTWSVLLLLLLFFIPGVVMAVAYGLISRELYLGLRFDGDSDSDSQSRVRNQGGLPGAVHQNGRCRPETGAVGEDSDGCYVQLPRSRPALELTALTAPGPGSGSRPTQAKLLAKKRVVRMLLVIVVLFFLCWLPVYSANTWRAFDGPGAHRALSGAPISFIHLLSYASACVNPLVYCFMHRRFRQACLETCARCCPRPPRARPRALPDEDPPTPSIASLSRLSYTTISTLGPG

Mus musculus [5] = test: Antidiabetic activity in high-fat diet fed streptozotocin-induced C57BL/6J mouse at 60 mg/kg, po by oral glucose tolerance test; format: functional, organism-based; design: dose 60 mg/kg
[6] = target: Sodium-dependent noradrenaline transporter (Homo sapiens) (UniProt P23975); test: Inhibition of human norepinephrine transporter at 10 uM relative to control
Sequence of Sodium-dependent noradrenaline transporter (Homo sapiens) (P23975 whole entry): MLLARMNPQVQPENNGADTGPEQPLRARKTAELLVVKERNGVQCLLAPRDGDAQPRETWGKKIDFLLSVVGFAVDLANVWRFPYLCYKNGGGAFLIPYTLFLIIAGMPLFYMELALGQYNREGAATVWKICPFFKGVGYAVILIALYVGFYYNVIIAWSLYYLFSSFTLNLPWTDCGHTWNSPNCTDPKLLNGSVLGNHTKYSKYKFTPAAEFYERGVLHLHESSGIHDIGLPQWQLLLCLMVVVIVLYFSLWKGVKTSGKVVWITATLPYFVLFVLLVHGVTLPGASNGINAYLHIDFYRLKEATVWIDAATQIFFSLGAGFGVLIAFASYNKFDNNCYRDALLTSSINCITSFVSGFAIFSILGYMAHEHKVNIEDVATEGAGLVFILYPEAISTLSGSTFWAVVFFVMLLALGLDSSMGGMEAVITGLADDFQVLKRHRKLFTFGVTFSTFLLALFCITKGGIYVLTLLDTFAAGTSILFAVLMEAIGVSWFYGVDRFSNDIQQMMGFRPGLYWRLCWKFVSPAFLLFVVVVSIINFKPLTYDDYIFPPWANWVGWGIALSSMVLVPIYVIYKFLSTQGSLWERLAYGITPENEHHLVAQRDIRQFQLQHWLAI

[7] = Volume of distribution at steady state in cynomolgus monkey at 0.5 mg/kg, iv; format: ADME, organism-based, Macaca fascicularis; design: dose 0.5 mg/kg, route intravenous; settings: in vivo, read-out: Vdss
[8] = Volume of distribution at steady state in Sprague-Dawley rat at 0.5 mg/kg, iv; format: ADME, organism-based; design: dose 0.5 mg/kg, route intravenous; settings: in vivo, read-out: Vdss
[9] = target: Histamine H4 receptor (Homo sapiens) (UniProt Q9H3N8); test: Inhibition of human histamine H4 receptor at 10 uM relative to control
Sequence of Histamine H4 receptor (Homo sapiens) (Q9H3N8 whole entry): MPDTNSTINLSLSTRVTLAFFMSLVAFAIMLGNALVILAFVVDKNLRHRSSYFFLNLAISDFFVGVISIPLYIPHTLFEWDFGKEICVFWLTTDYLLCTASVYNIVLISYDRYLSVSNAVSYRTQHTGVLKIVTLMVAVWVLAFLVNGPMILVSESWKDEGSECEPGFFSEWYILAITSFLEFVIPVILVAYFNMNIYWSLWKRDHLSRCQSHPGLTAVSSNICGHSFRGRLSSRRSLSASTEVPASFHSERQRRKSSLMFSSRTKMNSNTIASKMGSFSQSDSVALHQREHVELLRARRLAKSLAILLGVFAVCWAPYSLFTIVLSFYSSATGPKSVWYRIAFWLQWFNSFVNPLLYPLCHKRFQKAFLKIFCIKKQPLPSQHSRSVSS

[10] = target: D(1A) dopamine receptor (Homo sapiens) (UniProt P21728); test: Inhibition of human dopamine D1 receptor at 10 uM relative to control
Sequence of D(1A) dopamine receptor (Homo sapiens) (P21728 whole entry): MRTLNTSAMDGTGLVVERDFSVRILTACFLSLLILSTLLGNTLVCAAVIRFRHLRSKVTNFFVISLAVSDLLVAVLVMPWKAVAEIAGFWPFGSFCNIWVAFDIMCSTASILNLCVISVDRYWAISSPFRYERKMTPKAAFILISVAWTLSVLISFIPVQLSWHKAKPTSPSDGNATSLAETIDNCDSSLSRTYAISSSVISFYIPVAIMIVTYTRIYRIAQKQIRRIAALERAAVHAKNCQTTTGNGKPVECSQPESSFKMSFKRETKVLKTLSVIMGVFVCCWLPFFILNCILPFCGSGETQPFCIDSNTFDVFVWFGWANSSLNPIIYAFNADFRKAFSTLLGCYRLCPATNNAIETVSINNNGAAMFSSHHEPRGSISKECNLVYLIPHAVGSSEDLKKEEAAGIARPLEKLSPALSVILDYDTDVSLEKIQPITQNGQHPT

[11] = target: Kappa-type opioid receptor (Rattus norvegicus) (UniProt P34975); test: Inhibition of rat kappa opioid receptor at 10 uM relative to control
Sequence of Kappa-type opioid receptor (Rattus norvegicus) (P34975 whole entry): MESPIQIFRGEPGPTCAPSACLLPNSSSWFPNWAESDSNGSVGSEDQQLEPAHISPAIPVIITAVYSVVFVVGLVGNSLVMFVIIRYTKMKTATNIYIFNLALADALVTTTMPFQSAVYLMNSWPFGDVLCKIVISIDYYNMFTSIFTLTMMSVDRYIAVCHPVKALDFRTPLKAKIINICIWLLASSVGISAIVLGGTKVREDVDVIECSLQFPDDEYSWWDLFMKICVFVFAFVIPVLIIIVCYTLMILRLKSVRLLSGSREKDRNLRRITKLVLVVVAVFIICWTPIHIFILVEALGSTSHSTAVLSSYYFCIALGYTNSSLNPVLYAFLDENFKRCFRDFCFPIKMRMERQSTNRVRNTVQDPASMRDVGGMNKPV

[12] = target: T4, Free fatty acid receptor 1 (Homo sapiens, UniProt O14842); test: Agonist activity at human FFA1 receptor expressed in CHO cell membranes after 4 hrs by aequorin bioluminescence assay; format: cell-based
T4 sequence (O14842 whole entry): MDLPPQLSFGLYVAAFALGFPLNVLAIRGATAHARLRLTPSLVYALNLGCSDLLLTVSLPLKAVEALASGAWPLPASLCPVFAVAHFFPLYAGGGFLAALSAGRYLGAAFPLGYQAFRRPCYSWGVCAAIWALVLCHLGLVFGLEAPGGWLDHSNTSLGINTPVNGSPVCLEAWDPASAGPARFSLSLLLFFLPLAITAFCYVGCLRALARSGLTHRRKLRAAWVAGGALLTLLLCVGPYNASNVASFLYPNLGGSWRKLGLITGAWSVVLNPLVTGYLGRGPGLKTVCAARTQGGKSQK

[13] = target: T4, Free fatty acid receptor 1; test: Agonist activity at human FFA1 receptor expressed in CHO cell membranes after 4 hrs by aequorin bioluminescence assay relative to AM-1638; format: cell-based
[14] = Half life in Sprague-Dawley rat at 0.5 mg/kg, iv; format: ADME, organism-based; design: dose 0.5 mg/kg, route intravenous; settings: in vivo
[15] = Oral bioavailability in cynomolgus monkey at 2 mg/kg; format: ADME, organism-based, Macaca fascicularis; settings: in vivo
[16] = Clearance in Sprague-Dawley rat at 0.5 mg/kg, iv; format: ADME, organism-based; design: dose 0.5 mg/kg, route intravenous; settings: in vivo
[17] = Clearance in cynomolgus monkey at 0.5 mg/kg, iv; format: ADME, organism-based, Macaca fascicularis; design: dose 0.5 mg/kg, route intravenous; settings: in vivo
[18] = Half life in cynomolgus monkey at 0.5 mg/kg, iv; format: ADME, organism-based, Macaca fascicularis; design: dose 0.5 mg/kg, route intravenous; settings: in vivo
Mus musculus [19] = test: Antidiabetic activity in high-fat diet fed streptozotocin-induced C57BL/6J mouse assessed as improvement in glucose AUC at 30 mg/kg, po by oral glucose tolerance test relative to control; format: functional
[20] = target: Free fatty acid receptor 1 (Rattus norvegicus) (UniProt Q8K3T4); test: Agonist activity at FFA1 receptor in Sprague-Dawley rat fetal intestinal cells assessed as stimulation of GIP secretion after 1 hr by ELISA
Sequence of Free fatty acid receptor 1 (Rattus norvegicus) (Q8K3T4 whole entry): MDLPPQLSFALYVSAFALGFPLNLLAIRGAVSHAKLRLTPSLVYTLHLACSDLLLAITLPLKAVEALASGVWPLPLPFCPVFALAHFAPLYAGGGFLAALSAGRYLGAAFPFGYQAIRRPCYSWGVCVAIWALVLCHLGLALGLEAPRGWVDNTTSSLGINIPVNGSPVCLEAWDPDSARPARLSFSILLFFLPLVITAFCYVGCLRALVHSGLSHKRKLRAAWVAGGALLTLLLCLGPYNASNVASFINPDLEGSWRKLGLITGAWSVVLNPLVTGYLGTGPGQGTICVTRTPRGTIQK

[21] = target: Free fatty acid receptor 1 (Rattus norvegicus) (UniProt Q8K3T4); test: Agonist activity at FFA1 receptor in Sprague-Dawley rat fetal intestinal cells assessed as stimulation of GIP secretion after 1 hr by ELISA relative to AM-1638
Pancreatic islet [22] = test: Potentiation of glucose-stimulated insulin secretion in mouse pancreatic islets at 0.01 uM to 10 uM; format: functional
[23] = target: Free fatty acid receptor 1 (Rattus norvegicus) (UniProt Q8K3T4); test: Agonist activity at FFA1 receptor in Sprague-Dawley rat fetal intestinal cells assessed as stimulation of GLP1 secretion after 1 hr by ELISA
[24] = target: T4, Free fatty acid receptor 1; test: Positive cooperativite binding to human FFA1 receptor expressed in CHO cell membranes assessed as enhancement of specific binding of [3H]AMG 837 by reciprocal competition assay
Mus musculus [25] = test: Antidiabetic activity in high-fat diet fed streptozotocin-induced C57BL/6J mouse assessed as increase in insulin secretion at 30 mg/kg, po by oral glucose tolerance test; format: functional, organism-based; design: dose 30 mg/kg
[26] = target: Free fatty acid receptor 1 (Rattus norvegicus) (UniProt Q8K3T4); test: Agonist activity at FFA1 receptor in Sprague-Dawley rat fetal intestinal cells assessed as stimulation of GLP1 secretion after 1 hr by ELISA relative to AM-1638
Pancreatic islet [27] = test: Potentiation of glucose-stimulated insulin secretion in human pancreatic islets at 0.01 uM to 10 uM; format: functional

COc1ccc(F)c(-c2ccc(COc3cccc([C@@H](CC(=O)O)C4CC4)c3)cc2C2=CCCC2(C)C)c1
inhibition [1]: > 70%
bioavailability [2]: 15%
inhibition [3]: > 70%
inhibition [4]: > 70%
Activity (Mus musculus [5]): Active
inhibition [6]: > 70%
Vd [7]: 2 L/kg
Vd [8]: 1.1 L/kg
inhibition [9]: > 70%
inhibition [10]: > 70%
inhibition [11]: > 70%

COc1ccc(F)c(-c2ccc(COc3ccc4c(c3)[C@]3(CC4)CC[C@H]3C(=O)O)cc2C2=CCCC2(C)C)c1
EC50 [12]: 520 nM
Emax [13]: 92%

COc1ccc(F)c(-c2ccc(COc3ccc4c(c3)[C@]3(CCC4)C[C@H]3C(=O)O)cc2C2=CCCC2(C)C)c1
EC50 [12]: 150 nM
Emax [13]: 98%

COc1cc(-c2ccc(COc3ccc4c(c3F)[C@]3(CCC4)C[C@H]3C(=O)O)cc2[C@@H]2CCCC2(C)C)c(F)cn1
inhibition [1]: < 70%
bioavailability [2]: 61%
inhibition [3]: < 70%
EC50 [12]: 105 nM
inhibition [4]: < 70%
half-life [14]: 4.1 h
bioavailability [15]: 44%
inhibition [6]: < 70%
Emax [13]: 90%
clearance [16]: 2.83 mL/min/kg
Vd [7]: 0.4 L/kg
clearance [17]: 1.83 mL/min/kg
Vd [8]: 0.8 L/kg
half-life [18]: 3.7 h
inhibition [9]: < 70%
inhibition [10]: < 70%
inhibition [11]: < 70%

COc1ccc(F)c(-c2ccc(COc3ccc4c(c3)[C@]3(CCC4)C[C@H]3C(=O)O)cc2[C@@H]2CCCC2(C)C)c1
EC50 [12]: 92 nM
Emax [13]: 101%

COc1ccc(F)c(-c2ccc(COc3ccc4c(c3)[C@]3(CC4)C[C@H]3C(=O)O)cc2[C@@H]2CCCC2(C)C)c1
inhibition [1]: < 70%
bioavailability [2]: 28%
inhibition [3]: < 70%
EC50 [12]: 81 nM
Activity (Mus musculus [19]): 48%
inhibition [4]: < 70%
Activity [20]: Active
half-life [14]: 4.2 h
fold change (FC) [21]: 2
bioavailability [15]: 69%
Activity (Pancreatic islet [22]): Active
inhibition [6]: < 70%
Activity [23]: Active
Emax [13]: 101%
clearance [16]: 4.17 mL/min/kg
Activity [24]: Active
Vd [7]: 1.4 L/kg
clearance [17]: 14 mL/min/kg
Activity (Mus musculus [25]): Active
fold change (FC) [26]: 2
Vd [8]: 0.7 L/kg
half-life [18]: 2.2 h
inhibition [9]: < 70%
Activity (Pancreatic islet [27]): Active
inhibition [10]: < 70%
inhibition [11]: < 70%

COc1ccc(F)c(-c2ccc(COc3ccc4c(c3)[C@H]3[C@@H](C4)[C@H]3C(=O)O)cc2C2=CCCC2(C)C)c1
EC50 [12]: > 30000 nM
Emax [13]: 17%

COc1ccc(F)c(-c2ccc(COc3ccc4c(c3F)[C@]3(CCC4)C[C@H]3C(=O)O)cc2[C@@H]2CCCC2(C)C)c1
EC50 [12]: 98 nM
Emax [13]: 90%

COc1ccc(F)c(-c2ccc(COc3ccc4c(c3)[C@@H]3[C@H](C4)[C@H]3C(=O)O)cc2C2=CCCC2(C)C)c1
EC50 [12]: > 30000 nM
Emax [13]: 15%

COc1ccc(F)c(-c2ccc(COc3ccc4c(c3)[C@@]3(CC4)C[C@H]3C(=O)O)cc2C2=CCCC2(C)C)c1
EC50 [12]: 3780 nM
Emax [13]: 27%

COc1ccc(F)c(-c2ccc(COc3ccc4c(c3)[C@@H]3[C@H](C4)[C@@H]3C(=O)O)cc2C2=CCCC2(C)C)c1
EC50 [12]: > 30000 nM
Emax [13]: 10%

COc1ccc(F)c(-c2ccc(COc3ccc4c(c3)[C@]3(CC4)C[C@@H]3C(=O)O)cc2C2=CCCC2(C)C)c1
EC50 [12]: > 30000 nM
Emax [13]: 5%

COc1ccc(F)c(-c2ccc(COc3ccc4c(c3)[C@H]3[C@@H](C4)[C@@H]3C(=O)O)cc2C2=CCCC2(C)C)c1
EC50 [12]: 1420 nM
Emax [13]: 99%

COc1ccc(F)c(-c2ccc(COc3ccc4c(c3)[C@]3(CC4)C[C@H]3C(=O)O)cc2[C@H]2CCCC2(C)C)c1
EC50 [12]: 212 nM
Emax [13]: 104%

COc1ccc(F)c(-c2ccc(COc3ccc4c(c3)[C@@]3(CC4)C[C@@H]3C(=O)O)cc2C2=CCCC2(C)C)c1
EC50 [12]: > 30000 nM
Emax [13]: 12%

COc1ccc(F)c(-c2ccc(COc3ccc4c(c3)[C@]3(CCC4)CC[C@H]3C(=O)O)cc2C2=CCCC2(C)C)c1
EC50 [12]: 350 nM
Emax [13]: 83%

COc1ccc(F)c(-c2ccc(COc3ccc4c(c3)[C@]3(CC4)C[C@H]3C(=O)O)cc2C2=CCCC2(C)C)c1
EC50 [12]: 180 nM
Emax [13]: 100%
